Where two headings read alike, the source gives them in different places.
Tests used:
MHCC97-L = test: CellTiter-Glo luminescent cell viability assay; assay type: cell-based; details: 120 h incubation, read-out: Anti-proliferative activity IC50 MHCC97-L
Text: (§1) The in vitro antitumor activity of all compounds was screened against six HCC cell lines by CellTiter-Glo luminescent cell viability assay as described earlier. […] After a comprehensive assessment of PDGFR inhibition, cellular activity against HCC cells as well as potential druggability, E5 was chosen to investigate its kinase profiling, antitumor activity and molecular mechanism in the following study. […]
(§2) authenticated by using short tandem repeat (STR) matching analysis. No mycoplasma contamination was detected.
(§3) CellTiter-Glo luminescent cell viability assay
(§4) For experiments hepatocellular carcinoma cells were seeded at 4000 cells per well in 96-well plates. After overnight incubation, solution of compounds in DMSO at various concentrations were added to the cells and further incubated for 120 h. Cell viability was measured with the CellTiter-Glo Luminescent Cell Viability Assay (Promega) according to the manufacturer’s instructions. Luminescence was measured using an EnVision Multilabel Plate Reader (Perkin-Elmer). The cytotoxicity of the compounds was expressed as the percent age of luminescence relative to that of untreated cells . The concentration of compound producing 50% of cell proliferation (IC50) was calculated by nonlinear regression analysis of the response-concentration (log) curve, using the Graph-Pad Prism program package (Graph Pad Software; San Diego, CA). Results are expressed as the means of two […] experiments

SMMC-7721 = test: CellTiter-Glo luminescent cell viability assay; assay type: cell-based; details: read-out: Anti-proliferative activity IC50 SMMC-7721
Text: as §1, §2, §3, §4

BEL7404 = test: CellTiter-Glo luminescent cell viability assay; assay type: cell-based; details: read-out: Anti-proliferative activity IC50 BEL7404
Text: as §1, §2, §3, §4

SNU368 = test: CellTiter-Glo luminescent cell viability assay; assay type: cell-based; details: 120 h incubation, read-out: Anti-proliferative activity IC50 SNU368
Text: as §1, §2, §3, §4

Hep3B = test: CellTiter-Glo luminescent cell viability assay; assay type: cell-based; details: 120 h incubation, read-out: Anti-proliferative activity IC50 Hep3B
Text: as §1, §2, §3, §4

QGY-7703 = test: CellTiter-Glo luminescent cell viability assay; assay type: cell-based; details: read-out: Anti-proliferative activity IC50 QGY-7703
Text: as §1, §2, §3, §4

PDGFRα = PDGFRα (Homo sapiens, UniProt P16234); test: PDGFR kinase assay, Caliper microfluidic mobility shift; assay type: biochemical; details: compound at 1 µM, averages of two separate experiments
Procedure: (§5) In vitro inhibitory activities of all compounds at 1 μM against PDGFRα and PDGFRβ were evaluated using Caliper microfluidic mobility shift technology. […] At the same concentration, only E5 inhibited greater than 50% of PDGFRβ activity (Fig. 2B).
(§6) PDGFR kinase activity was measured using Caliper microfluidic mobility shift technology. Briefly, 2 μL compound solution (25 μM) in 25% DMSO per well were added into the 384 well microtiter plates. Then, 10 μL per well of enzyme solution (100 mM HEPES, 10 mM MgCl2, Brij35 (30%) 100 μL, 1 mM DTT, 20 ng enzyme) was added. After a brief centrifugation at 1,000 rpm, the kinase reactions were started by addition of 38 μL per well of peptide/ATP-solution (40 μM ATP, 6.5 μM peptide 5′-FAM-KKKKEEIYFFF-NH2, Tris-HCl buffer, pH 7.0) incubated at 30 °C for 60 min and stopped by the addition of 20 μL 35 mM EDTA per well. The electrophoretic separation of the phosphorylated and non-phosphorylated peptides was then carried out on LabChip EZ Reader II (Caliper Life Sciences). All other kinase reactions were carried out as previously reported using the Kinase-Glo Plus or ADP-Glo assay. Kinase inhibition rates were calculated per manufacturer’s instructions.

PDGFRβ = PDGFRβ (Homo sapiens, UniProt P09619); test: as above; assay type: biochemical; details: compound at 1 µM, averages of two separate experiments
Procedure: as §5, §6

Sequence of PDGFRβ (P09619 33-1106): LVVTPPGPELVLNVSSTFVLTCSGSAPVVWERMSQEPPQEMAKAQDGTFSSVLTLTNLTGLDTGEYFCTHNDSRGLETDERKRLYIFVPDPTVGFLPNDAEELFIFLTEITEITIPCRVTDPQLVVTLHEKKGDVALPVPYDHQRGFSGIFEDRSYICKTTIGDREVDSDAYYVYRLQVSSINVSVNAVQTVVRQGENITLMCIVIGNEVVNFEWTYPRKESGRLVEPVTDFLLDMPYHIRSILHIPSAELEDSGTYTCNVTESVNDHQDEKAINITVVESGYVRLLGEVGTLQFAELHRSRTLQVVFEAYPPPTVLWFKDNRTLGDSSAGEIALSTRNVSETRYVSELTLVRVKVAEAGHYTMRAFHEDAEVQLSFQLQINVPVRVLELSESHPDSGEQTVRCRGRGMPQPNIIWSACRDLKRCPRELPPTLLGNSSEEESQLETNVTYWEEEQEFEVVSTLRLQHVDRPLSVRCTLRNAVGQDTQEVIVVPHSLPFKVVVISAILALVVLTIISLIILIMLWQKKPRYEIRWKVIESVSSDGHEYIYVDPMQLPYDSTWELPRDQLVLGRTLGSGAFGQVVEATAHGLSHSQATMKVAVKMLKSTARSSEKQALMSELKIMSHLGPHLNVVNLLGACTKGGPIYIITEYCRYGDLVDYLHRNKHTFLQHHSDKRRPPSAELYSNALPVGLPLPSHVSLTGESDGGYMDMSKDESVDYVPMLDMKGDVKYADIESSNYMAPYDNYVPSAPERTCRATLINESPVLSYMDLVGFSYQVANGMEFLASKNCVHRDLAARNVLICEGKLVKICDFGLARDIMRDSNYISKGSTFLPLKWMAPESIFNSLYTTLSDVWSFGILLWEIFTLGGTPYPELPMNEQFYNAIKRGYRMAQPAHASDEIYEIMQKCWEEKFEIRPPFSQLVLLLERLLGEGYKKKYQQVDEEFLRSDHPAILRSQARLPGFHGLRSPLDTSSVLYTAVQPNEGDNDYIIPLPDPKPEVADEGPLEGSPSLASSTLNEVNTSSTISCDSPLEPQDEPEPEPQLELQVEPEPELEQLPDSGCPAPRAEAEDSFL
Sequence of PDGFRα (P16234 24-1089): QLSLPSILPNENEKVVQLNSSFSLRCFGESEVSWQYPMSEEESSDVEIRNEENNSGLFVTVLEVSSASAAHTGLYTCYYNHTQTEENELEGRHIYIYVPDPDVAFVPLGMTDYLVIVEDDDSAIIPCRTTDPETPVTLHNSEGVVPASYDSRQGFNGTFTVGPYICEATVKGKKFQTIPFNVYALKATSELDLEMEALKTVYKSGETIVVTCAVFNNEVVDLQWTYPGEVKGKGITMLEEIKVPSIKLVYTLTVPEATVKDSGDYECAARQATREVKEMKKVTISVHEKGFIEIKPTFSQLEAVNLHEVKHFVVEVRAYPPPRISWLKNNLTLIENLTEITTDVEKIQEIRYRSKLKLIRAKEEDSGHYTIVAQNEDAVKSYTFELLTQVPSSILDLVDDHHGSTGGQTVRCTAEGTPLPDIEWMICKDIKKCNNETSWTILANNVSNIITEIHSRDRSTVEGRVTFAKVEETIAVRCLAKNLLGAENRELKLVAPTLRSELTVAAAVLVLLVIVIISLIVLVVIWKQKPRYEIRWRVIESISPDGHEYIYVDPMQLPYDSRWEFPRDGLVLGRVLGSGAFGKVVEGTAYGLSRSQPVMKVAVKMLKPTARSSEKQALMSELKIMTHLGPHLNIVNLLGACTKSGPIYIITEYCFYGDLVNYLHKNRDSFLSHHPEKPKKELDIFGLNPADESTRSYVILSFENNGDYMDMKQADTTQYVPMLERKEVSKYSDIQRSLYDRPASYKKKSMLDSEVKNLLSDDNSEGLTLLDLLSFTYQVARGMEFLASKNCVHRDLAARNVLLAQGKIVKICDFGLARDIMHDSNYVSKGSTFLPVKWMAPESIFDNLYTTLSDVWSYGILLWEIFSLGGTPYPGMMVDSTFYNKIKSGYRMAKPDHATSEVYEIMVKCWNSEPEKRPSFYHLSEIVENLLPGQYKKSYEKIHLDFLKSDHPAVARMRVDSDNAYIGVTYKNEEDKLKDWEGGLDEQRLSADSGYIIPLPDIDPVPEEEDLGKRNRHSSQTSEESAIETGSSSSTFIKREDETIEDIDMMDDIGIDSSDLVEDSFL

Row | Structure (SMILES) | IC50 (SMMC-7721; 120 h incubation) [µM] | IC50 (BEL7404; 120 h incubation) [µM] | IC50 (SNU368) [µM] | IC50 (Hep3B) [µM] | Inhibition effect (%) PDGFRα (PDGFRα) [%] | Inhibition effect (%) PDGFRβ (PDGFRβ) [%] | IC50 (SMMC-7721; Homo sapiens, SMMC-7721, 120 h incubation) [µM] | IC50 (BEL7404; Homo sapiens, BEL-7404, 120 h incubation) [µM] | IC50 (Hep3B; Homo sapiens, Hep3B) [µM] | inhibition at 1 µM (PDGFRα; read-out: Inhibition effect (%) PDGFRα) [%] | inhibition at 1 µM (PDGFRβ; read-out: Inhibition effect (%) PDGFRβ) [%] | IC50 (MHCC97-L) [µM] | IC50 (QGY-7703; 120 h incubation) [µM] | IC50 (MHCC97-L; MHCC97L) [µM] | IC50 (QGY-7703; Homo sapiens, QGY-7703, 120 h incubation) [µM]
1 | Cc1ccc(C(=O)Nc2ccc(C)c(Oc3nccc(-c4ccccc4)n3)c2)cc1 [B3] | 6 | 3.7 | 12.8 | 4.6 | 23.12 | 26.17 |  |  |  |  |  | 6.1 | 7.3 |  | 
2 | Cc1ccc(NC(=O)c2ccoc2)cc1Oc1nccc(-c2cccc3ccccc23)n1 [C4] | 12 | 8.8 | 15.8 | 22.9 | 13.73 | 2.83 |  |  |  |  |  | 96.4 | 14.9 |  | 
3 | Cc1ccc(NC(=O)c2cccc(Cl)c2)cc1Oc1nccc(-c2ccccc2)n1 [B7] | 17 | 18.3 | 14 | 15.5 | 31.49 | 16.63 |  |  |  |  |  | > 200 | 25.8 |  | 
4 | Cc1ccc(NC(=O)c2ccccc2)cc1Oc1nccc(-c2ccccc2)n1 [B1] | 2.7 | 10.5 | 17.7 | 2.7 | 2.32 | 12.87 |  |  |  |  |  | 4.9 | 5.8 |  | 
5 | COc1ccc(C(=O)Nc2ccc(C)c(Oc3nccc(-c4ccccc4)n3)c2)cc1 [B5] | 8.4 | 7.9 | 15.8 | 9.2 | 1.81 | 19.39 |  |  |  |  |  | 9.8 | 14.9 |  | 
6 | Cc1ccc(NC(=O)c2ccc([N+](=O)[O-])cc2)cc1Oc1nccc(-c2ccccc2)n1 [B8] | 7.5 | 9.9 | 12 | 9 | 26.17 | 37.71 |  |  |  |  |  | 14 | 14.4 |  | 
7 | Cc1ccc(NC(=O)c2ccncc2)cc1Oc1nccc(-c2ccccc2)n1 [B12] | 8.8 | 13.4 | 18 | 17.7 | 25.66 | 20.65 |  |  |  |  |  | 44 | 27.6 |  | 
8 | COc1ccc(C(=O)Nc2ccc(C)c(Oc3nccc(-c4cccnc4)n3)c2)cc1 [A5] | 23.5 | 15.6 | 49.5 | 23.3 | 45.20 | 33.70 |  |  |  |  |  | 31.3 | 40.5 |  | 
9 | Cc1ccc(N)cc1Oc1nccc(-c2cccnc2)n1 [A1] |  |  | 85.7 |  |  |  | 13.6 | 10.8 | 15.8 | 39.1 | 21.4 |  |  | 15.1 | 24.5
10 | Cc1ccc(NC(=O)c2ccc(Cl)cc2)cc1Oc1nccc(-c2cccnc2)n1 [A6] | 12.3 | 9.5 | 24 | 10.7 | 47.73 | 35.96 |  |  |  |  |  | 16.2 | 21.9 |  | 

More lines, main results first:

Row | IC50 (SMMC-7721; 120 h incubation) [µM] | IC50 (BEL7404; 120 h incubation) [µM] | IC50 (SNU368) [µM] | IC50 (Hep3B) [µM] | Inhibition effect (%) PDGFRα (PDGFRα) [%] | Inhibition effect (%) PDGFRβ (PDGFRβ) [%] | IC50 (SMMC-7721; Homo sapiens, SMMC-7721, 120 h incubation) [µM] | IC50 (BEL7404; Homo sapiens, BEL-7404, 120 h incubation) [µM] | IC50 (Hep3B; Homo sapiens, Hep3B) [µM] | inhibition at 1 µM (PDGFRα; read-out: Inhibition effect (%) PDGFRα) [%] | inhibition at 1 µM (PDGFRβ; read-out: Inhibition effect (%) PDGFRβ) [%] | Structure (SMILES) | IC50 (MHCC97-L) [µM] | IC50 (QGY-7703; 120 h incubation) [µM] | IC50 (MHCC97-L; MHCC97L) [µM] | IC50 (QGY-7703; Homo sapiens, QGY-7703, 120 h incubation) [µM]
11 | 18.4 | 15.6 | 26.5 | 41.8 | 24.14 | 25.67 |  |  |  |  |  | Cc1ccc(NC(=O)c2ccco2)cc1Oc1nccc(-c2cc3ccccc3n2C)n1 [F3] | > 200 | 97.7 |  | 
12 | 21.6 | 32.8 | 43.8 | 28.3 | 36.82 | 46.75 |  |  |  |  |  | Cc1ccc(NC(=O)Cc2ccccc2)cc1Oc1nccc(-c2ccco2)n1 [D2] | 26.4 | 42.2 |  | 
13 | 1.5 | 48.7 | 37.3 | 11.4 | 13.74 | 28.93 |  |  |  |  |  | Cc1ccc(NC(=O)c2ccccc2)cc1Oc1nccc(-c2ccco2)n1 [D1] | 1.6 | 2.5 |  | 
14 | 27.7 | 38.1 | 31.6 | 11.7 | -1.24 | -0.44 |  |  |  |  |  | Cc1ccc(NC(=O)CN2CCN(C)CC2)cc1Oc1nccc(-c2cc3ccccc3o2)n1 [E6] | 16.7 | 29.5 |  | 
15 | 7.9 | 17.6 | 22.2 | 9.7 | 22.61 | 37.72 |  |  |  |  |  | COc1ccc(C(=O)Nc2ccc(C)c(Oc3nccc(-c4ccco4)n3)c2)cc1 [D3] | 8.5 | 15.7 |  | 
16 | 14.3 | 6.7 | 17.2 | 19.7 | 24.14 | -0.94 |  |  |  |  |  | Cc1ccc(NC(=O)c2ccc(Cl)cc2)cc1Oc1nccc(-c2cccc3ccccc23)n1 [C6] | > 200 | 19.2 |  | 
17 | 4.6 | 5.9 | 14.7 | 9 | 18.56 | 19.39 |  |  |  |  |  | Cc1ccc(NC(=O)CN2CCOCC2)cc1Oc1nccc(-c2cc3ccccc3o2)n1 [E7] | 59.1 | 10.3 |  | 
